Experimental data from patent US20250002455A1, “NEW N-PHENYLPYRROLAMIDE INHIBITORS OF DNA GYRASE AND TOPOISOMERASE IV WITH ANTIBACTERIAL ACTIVITY” (priority 2020, published 2025).
Values after ≈ are worked out from the molar mass of the structure shown. Like-named read-outs stand apart in the source and are kept apart here.

Assays:
[1] = target: T1, E. coli DNA gyrase (Escherichia coli, UniProt P0AES6); test: biochemical; settings: for IC50: read-out: IC50
T1 construct: purchased Inspiralis
Outline: (§1)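 Triplex-capture format: plasmid bound to a biotinylated oligonucleotide on streptavidin plates after reaction at 37 °C for 30 min. The reaction was stopped with TF buffer (50 mM NaOAc pH 5.0, 50 mM NaCl, 50 mM MgCl2), and captured DNA was stained with SybrGOLD. IC50 values are the mean of three independent measurements.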

[2] = tested on: P. aeruginosa ATCC 27853; test: Microbroth dilution MIC (CLSI); format: cell-based; settings: Pseudomonas aeruginosa, ATCC27853
Outline: (§2)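 Stocks in 100% DMSO → 2-fold serial dilutions in DMSO → broth microdilution per CLSI M07-A8/M11-A8 → visual MIC (no growth).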

[3] = tested on: S. aureus ATCC 43300 (MRSA); test: Microbroth dilution MIC (CLSI); format: cell-based; settings: Staphylococcus aureus; S. aureus ATCC 43300 (MRSA); read-out: MIC
Outline: as §2

[4] = tested on: S. aureus ATCC 29213; test: Microbroth dilution MIC (CLSI); format: cell-based; settings: Staphylococcus aureus, ATCC29213
Outline: as §2

[5] = tested on: E. spp. cloacae ATCC 13047; test: Microbroth dilution MIC (CLSI); format: cell-based; settings: Enterobacter cloacae, ATCC13047; E. spp. cloacae ATCC 13047; read-out: MIC
Outline: as §2

[6] = tested on: E. faecium (ATCC 35667); test: Microbroth dilution MIC (CLSI); format: cell-based; settings: Enterococcus faecium, ATCC35667
Outline: as §2

[7] = tested on: A. baumannii ATCC 17978; test: Microbroth dilution MIC (CLSI); format: cell-based; settings: Acinetobacter baumannii, ATCC17978; A. baumannii ATCC 17978; read-out: MIC
Outline: as §2

[8] = tested on: E. faecium ATCC 700221; test: Microbroth dilution MIC (CLSI); format: cell-based; settings: Enterococcus faecium, ATCC700221; E. faecium ATCC 700221; read-out: MIC
Outline: as §2

[9] = tested on: K. pneumoniae (ATCC 700603); test: Microbroth dilution MIC (CLSI); format: cell-based; settings: Klebsiella pneumoniae, ATCC700603
Outline: as §2

[10] = tested on: K. pneumoniae ATCC 10031; test: Microbroth dilution MIC (CLSI); format: cell-based; settings: Klebsiella pneumoniae, ATCC10031; K. pneumoniae ATCC 10031; read-out: MIC
Outline: as §2

[11] = tested on: A. baumannii (ATCC 19606); test: Microbroth dilution MIC (CLSI); format: cell-based; settings: Acinetobacter baumannii, ATCC19606
Outline: as §2

[12] = tested on: E. coli ATCC 25922; test: Microbroth dilution MIC (CLSI); format: cell-based; settings: Escherichia coli, ATCC25922
Outline: as §2

[13] = tested on: E. aerogenes (ATCC 13408); test: Microbroth dilution MIC (CLSI); format: cell-based, Enterobacter aerogenes; settings: Klebsiella aerogenes, ATCC13408
Protocol: The chemical entities described in the present invention were assessed for their antimicrobial activity using a microbroth dilution assay as recommended by the CLSI (Methods for Dilution Antimicrobial Susceptibility Tests for Bacteria That Grow Aerobically, and Methods for Antimicrobial Susceptibility Testing of Anaerobic Bacteria, Clinical and Laboratory Standards Institute, Document M07-A8, and M11-A8, Wayne, PA 19087, USA, 2012.). Compounds were dissolved by using 100% DMSO. Serial two-fold dilutions of each compound were made by using 100% DMSO as the diluent.
A library of Gram-negative and Gram-positive microbes and their drug- and multidrug-resistant variants were employed as test organisms. The MIC (minimum inhibitory concentration) was determined as the lowest concentration of an individual drug that lead to no visible growth.

[14] = target: T2, S. aureus topoisomerase IV (Staphylococcus aureus, UniProt P0C1S7); test: Topoisomerase IV inhibition assay (Inspiralis, streptavidin-coated plates); format: biochemical; settings: S. aureus topo IV; for remaining activity at 10 µM: 10 μM compound; for IC50: read-out: IC50
T2 construct: purchased Inspiralis
Protocol: Inhibitory activities for compounds of the present invention were determined on E. coli and S. aureus DNA gyrase and topoisomerase IV in an assay from Inspiralis on streptavidin-coated 96-well microtiter plates from Thermo scientific Pierce. […] After washing off the unbound oligonucleotide, the enzyme test was performed. […] Reaction solutions were incubated at 37° C. for 30 min. After that, the TF buffer (50 mM NaOAc with pH 5.0, 50 mM NaCl and 50 mM MgCl2) was added to terminate the enzymatic reaction. After additional incubation for 30 min at rt, during which biotin-oligonucleotide-plasmid triplex was formed, the unbound plasmid was washed off using TF buffer and SybrGOLD in T10 buffer (10 mM Tris HCl with pH 8.0 and 1 mM EDTA) was added. […] Initial screening was done at 100 or 10 nM concentration of inhibitors against E. coli DNA gyrase or 1 μM or 100 nM concentration against S. aureus DNA gyrase and E. coli and S. aureus topo IV. […] GraphPad Prism 6.0 software was used to calculate the IC50 values. The result is given as the average value of three independent measurements. […] Chemoth.

[15] = target: T3, E. coli topoisomerase IV (Escherichia coli, UniProt P20083); test: biochemical; settings: for remaining activity at 10 µM: 10 μM compound, read-out: RA (residual activity of the enzyme); for IC50: read-out: IC50
T3 construct: purchased Inspiralis
Outline: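 Supercoiling/relaxation read via biotin-oligonucleotide triplex capture on streptavidin plates; reactions 30 min at 37° C, stopped with TF buffer pH 5.0, plasmid stained with SybrGOLD.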

[16] = target: T4, S. aureus DNA gyrase (Staphylococcus aureus, UniProt P0A0K8); test: biochemical; settings: for IC50: read-out: IC50
T4 construct: purchased Inspiralis
Outline: as §1

[17] = P. aeruginosa ATCC 27853, read-out: MIC
[18] = S. aureus ATCC 29213, read-out: MIC
[19] = E. faecium (ATCC 35667), read-out: MIC
[20] = K. pneumoniae (ATCC 700603), read-out: MIC
[21] = A. baumannii (ATCC 19606), read-out: MIC
[22] = E. coli ATCC 25922, read-out: MIC
[23] = E. aerogenes (ATCC 13408), read-out: MIC
[24] = read-out: RA (residual activity of the enzyme)

T3 sequence (P0AFI2 whole entry): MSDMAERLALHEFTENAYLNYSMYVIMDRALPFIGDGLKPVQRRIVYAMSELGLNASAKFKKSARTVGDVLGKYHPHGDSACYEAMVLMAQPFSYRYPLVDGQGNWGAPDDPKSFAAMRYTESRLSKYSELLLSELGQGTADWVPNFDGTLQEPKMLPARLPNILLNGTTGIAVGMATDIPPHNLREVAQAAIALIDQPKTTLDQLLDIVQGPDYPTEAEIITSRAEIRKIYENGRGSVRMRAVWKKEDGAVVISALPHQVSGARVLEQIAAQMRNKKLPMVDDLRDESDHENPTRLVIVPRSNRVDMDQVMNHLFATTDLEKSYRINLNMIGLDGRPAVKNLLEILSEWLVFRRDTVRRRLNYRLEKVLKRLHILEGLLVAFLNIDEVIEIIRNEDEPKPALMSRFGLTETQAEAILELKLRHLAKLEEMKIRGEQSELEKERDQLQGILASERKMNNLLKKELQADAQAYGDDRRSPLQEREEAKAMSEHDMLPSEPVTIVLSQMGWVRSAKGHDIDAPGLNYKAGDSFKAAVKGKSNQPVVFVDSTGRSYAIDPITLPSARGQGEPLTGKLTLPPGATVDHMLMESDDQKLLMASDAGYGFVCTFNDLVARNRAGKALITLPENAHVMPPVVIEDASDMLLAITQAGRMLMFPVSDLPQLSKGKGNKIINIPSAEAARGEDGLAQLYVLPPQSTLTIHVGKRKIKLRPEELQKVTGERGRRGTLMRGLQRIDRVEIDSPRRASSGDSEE
T3 sequence (P20083 whole entry): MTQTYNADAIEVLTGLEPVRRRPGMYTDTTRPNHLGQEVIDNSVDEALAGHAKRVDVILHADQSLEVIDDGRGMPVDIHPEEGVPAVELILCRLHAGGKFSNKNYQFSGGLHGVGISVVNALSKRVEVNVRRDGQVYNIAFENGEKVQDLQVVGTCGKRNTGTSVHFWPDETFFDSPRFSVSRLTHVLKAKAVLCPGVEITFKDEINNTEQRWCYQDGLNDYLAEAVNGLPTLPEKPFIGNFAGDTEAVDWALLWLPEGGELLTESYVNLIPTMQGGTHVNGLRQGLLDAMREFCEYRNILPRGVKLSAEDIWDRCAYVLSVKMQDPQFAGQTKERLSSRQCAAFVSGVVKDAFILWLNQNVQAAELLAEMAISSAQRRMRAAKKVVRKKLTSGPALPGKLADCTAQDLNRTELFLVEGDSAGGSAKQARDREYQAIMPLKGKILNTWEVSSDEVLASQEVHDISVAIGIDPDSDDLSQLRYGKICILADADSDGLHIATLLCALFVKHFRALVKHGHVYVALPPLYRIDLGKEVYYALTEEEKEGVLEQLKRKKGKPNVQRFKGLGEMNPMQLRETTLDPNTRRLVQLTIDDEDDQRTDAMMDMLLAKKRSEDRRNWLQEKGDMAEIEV
T4 sequence (P20831 whole entry): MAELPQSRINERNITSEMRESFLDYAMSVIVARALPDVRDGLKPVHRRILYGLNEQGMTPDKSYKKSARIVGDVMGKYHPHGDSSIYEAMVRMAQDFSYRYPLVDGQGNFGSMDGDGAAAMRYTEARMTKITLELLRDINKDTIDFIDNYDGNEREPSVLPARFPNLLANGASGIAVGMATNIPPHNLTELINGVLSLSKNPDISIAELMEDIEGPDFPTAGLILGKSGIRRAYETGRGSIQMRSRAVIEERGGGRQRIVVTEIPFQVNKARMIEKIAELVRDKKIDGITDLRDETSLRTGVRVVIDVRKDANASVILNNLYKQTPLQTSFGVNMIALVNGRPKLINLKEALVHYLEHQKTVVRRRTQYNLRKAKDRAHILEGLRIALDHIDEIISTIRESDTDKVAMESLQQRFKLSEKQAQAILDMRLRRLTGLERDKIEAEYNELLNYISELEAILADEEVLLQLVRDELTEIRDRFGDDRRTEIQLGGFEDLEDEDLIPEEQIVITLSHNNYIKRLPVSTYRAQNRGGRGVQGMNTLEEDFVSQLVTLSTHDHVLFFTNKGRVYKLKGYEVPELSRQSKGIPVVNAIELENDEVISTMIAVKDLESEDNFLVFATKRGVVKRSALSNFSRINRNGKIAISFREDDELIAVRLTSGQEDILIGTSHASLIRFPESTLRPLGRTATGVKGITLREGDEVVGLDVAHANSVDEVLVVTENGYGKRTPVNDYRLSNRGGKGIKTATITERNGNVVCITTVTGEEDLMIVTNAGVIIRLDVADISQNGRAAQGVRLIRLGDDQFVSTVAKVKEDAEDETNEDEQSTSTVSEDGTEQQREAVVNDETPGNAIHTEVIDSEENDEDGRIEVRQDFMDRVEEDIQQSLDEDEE
T4 sequence (P0A0K8 whole entry): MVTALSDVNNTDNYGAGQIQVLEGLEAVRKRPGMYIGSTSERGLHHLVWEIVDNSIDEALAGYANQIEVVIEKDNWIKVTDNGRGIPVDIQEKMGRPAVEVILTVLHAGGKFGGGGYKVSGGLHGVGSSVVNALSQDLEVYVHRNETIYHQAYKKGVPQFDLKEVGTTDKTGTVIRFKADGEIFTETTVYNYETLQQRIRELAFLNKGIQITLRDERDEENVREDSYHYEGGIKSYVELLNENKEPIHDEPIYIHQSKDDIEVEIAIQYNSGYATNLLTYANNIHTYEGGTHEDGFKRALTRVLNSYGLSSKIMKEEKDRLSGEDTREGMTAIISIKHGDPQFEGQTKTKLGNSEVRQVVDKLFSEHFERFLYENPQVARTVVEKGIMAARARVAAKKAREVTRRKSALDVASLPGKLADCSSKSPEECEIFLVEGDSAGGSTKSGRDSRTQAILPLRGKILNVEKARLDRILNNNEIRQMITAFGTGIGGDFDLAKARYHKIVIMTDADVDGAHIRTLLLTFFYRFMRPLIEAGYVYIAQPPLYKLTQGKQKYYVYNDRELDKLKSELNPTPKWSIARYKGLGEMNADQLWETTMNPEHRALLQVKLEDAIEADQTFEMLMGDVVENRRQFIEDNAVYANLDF
T2 sequence (P0C1U9 whole entry): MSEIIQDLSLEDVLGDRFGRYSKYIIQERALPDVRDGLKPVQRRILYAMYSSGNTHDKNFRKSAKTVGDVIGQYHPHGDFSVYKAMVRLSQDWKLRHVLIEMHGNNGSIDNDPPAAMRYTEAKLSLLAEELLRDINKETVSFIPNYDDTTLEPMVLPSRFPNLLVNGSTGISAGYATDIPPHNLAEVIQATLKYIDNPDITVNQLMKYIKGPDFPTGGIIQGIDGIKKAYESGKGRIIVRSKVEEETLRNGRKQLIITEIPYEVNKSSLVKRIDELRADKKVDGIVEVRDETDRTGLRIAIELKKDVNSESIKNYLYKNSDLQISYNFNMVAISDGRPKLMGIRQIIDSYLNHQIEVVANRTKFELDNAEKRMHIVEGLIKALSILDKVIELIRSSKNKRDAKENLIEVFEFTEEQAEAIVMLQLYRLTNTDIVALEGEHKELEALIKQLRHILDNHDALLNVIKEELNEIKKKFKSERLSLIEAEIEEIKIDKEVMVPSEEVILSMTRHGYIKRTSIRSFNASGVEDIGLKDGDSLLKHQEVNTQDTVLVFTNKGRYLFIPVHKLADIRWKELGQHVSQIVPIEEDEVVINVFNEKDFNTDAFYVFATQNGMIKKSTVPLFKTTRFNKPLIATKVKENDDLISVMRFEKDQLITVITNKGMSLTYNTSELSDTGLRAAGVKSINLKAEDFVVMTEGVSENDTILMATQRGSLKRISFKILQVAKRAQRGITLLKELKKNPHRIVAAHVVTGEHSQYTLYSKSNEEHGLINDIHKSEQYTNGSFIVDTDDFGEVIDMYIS
T2 sequence (P0C1S7 whole entry): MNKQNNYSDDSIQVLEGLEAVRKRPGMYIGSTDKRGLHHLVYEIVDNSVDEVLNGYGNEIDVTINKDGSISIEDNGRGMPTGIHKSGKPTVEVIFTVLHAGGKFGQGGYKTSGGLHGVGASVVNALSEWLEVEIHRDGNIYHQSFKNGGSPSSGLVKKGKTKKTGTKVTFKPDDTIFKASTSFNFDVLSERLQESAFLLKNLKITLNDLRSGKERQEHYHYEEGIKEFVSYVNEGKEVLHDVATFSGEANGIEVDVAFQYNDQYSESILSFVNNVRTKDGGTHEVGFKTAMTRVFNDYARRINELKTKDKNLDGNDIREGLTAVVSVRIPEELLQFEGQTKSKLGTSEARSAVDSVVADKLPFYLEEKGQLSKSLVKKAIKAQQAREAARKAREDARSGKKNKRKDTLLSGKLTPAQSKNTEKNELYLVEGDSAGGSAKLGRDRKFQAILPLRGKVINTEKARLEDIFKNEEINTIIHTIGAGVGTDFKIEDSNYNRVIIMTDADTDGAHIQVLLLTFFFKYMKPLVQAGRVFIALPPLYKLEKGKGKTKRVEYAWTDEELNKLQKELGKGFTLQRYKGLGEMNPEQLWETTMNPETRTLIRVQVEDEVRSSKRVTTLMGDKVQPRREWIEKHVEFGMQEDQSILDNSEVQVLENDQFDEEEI

| Compound | IC50 ([1]; E. coli DNA gyrase) [nM] | MIC [2, 17] [µg/mL] | MIC [4, 18] [µg/mL] | MIC [6, 19] [µg/mL] | MIC [9, 20] [µg/mL] | MIC [11, 21] [µg/mL] | MIC [12, 22] [µg/mL] | MIC [13, 23] [µg/mL] | remaining activity at 10 µM ([15]; E. coli topo IV) [%] | remaining activity at 10 µM [14, 24] [%] | IC50 [14] [nM] | further results |
| --- | --- | --- | --- | --- | --- | --- | --- | --- | --- | --- | --- | --- |
| Cc1[nH]c(C(=O)Nc2ccc(-c3nnn[nH]3)cc2N2CCOCC2)c(Cl)c1Cl [Example 10, 3,4-Dichloro-5-methyl-N-(2-morpholino-4-(2H-tetrazol-5-yl)phenyl)-1H-pyrrole-2-carboxamide] | 44.5 | ≥ 64 | ≥ 64 | 10 (≈ 23.7 µM) | ≥ 64 | ≥ 64 | ≥ 64 | ≥ 64 | – | – | – | MIC [3]: ≥ 64 µg/mL; MIC [5]: ≥ 64 µg/mL; MIC [7]: ≥ 64 µg/mL; MIC [8]: ≥ 64 µg/mL; MIC [10]: ≥ 64 µg/mL; remaining activity at 0.1 µM ([14]; 0.1 μM compound, read-out: RA (residual activity of the enzyme)): 101%; remaining activity at 1 µM ([14]; 1 μM compound, read-out: RA (residual activity of the enzyme)): 7% |
| Cc1[nH]c(C(=O)Nc2ccc(C(=O)O)cc2N2CCNCC2)c(Cl)c1Cl [Example 12, 4-(5-Carboxy-2-(3,4-dichloro-5-methyl-1H-pyrrole-2-carboxamido)phenyl)piperazin-1-ium chloride] | – | ≥ 64 | ≥ 64 | – | – | – | ≥ 64 | – | -18 | -17 | – | remaining activity at 1 µM ([1]; E. coli DNA gyrase, 1 μM compound, read-out: RA (residual activity of the enzyme)): 67%; MIC [6]: ≥ 64 µg/mL; MIC [9]: ≥ 64 µg/mL; MIC [11]: ≥ 64 µg/mL; MIC [13]: ≥ 64 µg/mL |
| Cc1[nH]c(C(=O)Nc2ccc(C(=O)NCC(=O)O)cc2N2CC[C@@H](N)C2)c(Cl)c1Cl [Example 34, (R)-1-(5-((Carboxymethyl)carbamoyl)-2-(3,4-dichloro-5-methyl-1H-pyrrole-2-carboxamido)phenyl)pyrrolidin-3-aminium chloride] | – | – | – | – | – | – | – | – | – | – | 2030 | IC50 [16]: 1240 nM; IC50 [1]: 21.3 nM; IC50 [15]: 2370 nM; MIC [2]: ≥ 64 µg/mL; MIC [4]: ≥ 64 µg/mL; MIC [6]: ≥ 64 µg/mL; MIC [9]: ≥ 64 µg/mL; MIC [11]: ≥ 64 µg/mL; MIC [12]: ≥ 64 µg/mL; MIC [13]: ≥ 64 µg/mL |
| Cc1[nH]c(C(=O)Nc2ccc(C(=O)NCC(=O)O)cc2N2CCNCC2)c(Cl)c1Cl.Cl [Example 36, 4-(5-((Carboxymethyl)carbamoyl)-2-(3,4-dichloro-5-methyl-1H-pyrrole-2-carboxamido)phenyl)piperazin-1-ium chloride] | 40.3 | ≥ 64 | ≥ 64 | ≥ 64 | ≥ 64 | ≥ 64 | ≥ 64 | ≥ 64 | -43 | – | 4190 | IC50 ([16]; S. aureus DNA gyrase): 621 nM |
| Cl.N[C@H]1CCN(c2cc(C(=O)NCC(=O)O)ccc2NC(=O)c2cc(Br)c(Br)[nH]2)C1 [Example 38, (S)-1-(5-((Carboxymethyl)carbamoyl)-2-(4,5-dibromo-1H-pyrrole-2-carboxamido)phenyl)pyrrolidin-3-aminium chloride] | 35.7 | ≥ 64 | ≥ 64 | ≥ 64 | ≥ 64 | ≥ 64 | ≥ 64 | ≥ 64 | 84 | 91 | – | remaining activity at 10 µM ([16]; S. aureus DNA gyrase, 10 μM compound, read-out: RA (residual activity of the enzyme)): 46% |
| Cl.O=C(O)CNC(=O)c1ccc(NC(=O)c2cc(Br)c(Br)[nH]2)c(N2CCNCC2)c1 [Example 39, 4-(5-((Carboxymethyl)carbamoyl)-2-(4,5-dibromo-1H-pyrrole-2-carboxamido)phenyl)piperazin-1-ium chloride] | 841 | ≥ 64 | ≥ 64 | ≥ 64 | ≥ 64 | ≥ 64 | ≥ 64 | ≥ 64 | 97 | 73 | – | – |
| Cc1[nH]c(C(=O)Nc2ccc(C(=O)NCc3n[nH]c(=O)o3)cc2N2CCNCC2)c(Cl)c1Cl.Cl [Example 40, 4-(2-(3,4-Dichloro-5-methyl-1H-pyrrole-2-carboxamido)-5-(((5-oxo-4,5-dihydro-1,3,4-oxadiazol-2-yl)methyl)carbamoyl)phenyl)piperazin-1-ium chloride] | 22.4 | ≥ 64 | ≥ 64 | ≥ 64 | ≥ 64 | ≥ 64 | ≥ 64 | ≥ 64 | – | – | 2700 | remaining activity at 1 µM ([16]; S. aureus DNA gyrase, 1 μM compound, read-out: RA (residual activity of the enzyme)): 37%; IC50 ([15]; E. coli topo IV): 2970 nM |
